Structures can show the parent of a compound that is named as a salt. Peptide text beside a SMILES is read from it.

System in the first data set: not listed separately
In words: Coagulation parameters (PT, APTT, TT) after oral administration. The format is in vivo, rat. Particulars: SD rats, 65 μmol/kg bw, n = 6. An excerpt: The prothrombin time (PT), activated partial thromboplastin time (APTT), and thrombin time (TT) assay methods refer to our previous study. PT, APTT, and TT detection kits (Siemens, Shanghai, China) were employed for the determination of coagulation parameters according to the manufacturer’s instructions.
Regarding `COC(=O)[C@H](c1ccccc1Cl)N1CCc2sccc2C1` [clopidogrel, Clopidogrel hydrogen sulfate, reference compound], the “PT (prothrombin time)” value was “altered the TT and PT significantly”; the “TT (thrombin time)” value is “altered the TT and PT significantly”.

The same data set, now with this note: SD rats, 200 μmol/kg b.w., n = 6.
Take `N[C@@H](CCC(=O)O)C(=O)N1C[C@H](O)C[C@H]1C(=O)NCC(=O)N[C@@H](CCC(=O)O)C(=O)O` [EOGE, Glu-Hyp-Gly-Glu] (HELM PEPTIDE1{E.[Hyp].G.E}$$$$V2.0): the “coagulation parameters, including PT, TT, and APTT” value is on record as “no significant effect”.

Still in this data set, the particulars now being: SD rats, 300 μmol/kg b.w., n = 6.
With `N[C@@H](CCC(=O)O)C(=O)N1C[C@H](O)C[C@H]1C(=O)NCC(=O)N[C@@H](CCC(=O)O)C(=O)O` [EOGE, Glu-Hyp-Gly-Glu] (HELM PEPTIDE1{E.[Hyp].G.E}$$$$V2.0), the “coagulation parameters, including PT, TT, and APTT” value is reported as “no significant effect”.

System in the next data set: not listed separately
In words: Thymus index and spleen index. The format is in vivo, rat. Particulars: SD rats, oral, 65 μmol/kg bw, n = 6. Here is the method:
After the rats were sacrificed, the thymuses and spleens were collected and weighed to obtain the thymus index (TI) and spleen index (SI). The TI and SI were calculated according to the following equation: TI/SI (mg/g) = (weight of thymus/spleen)/body weight.
As to `COC(=O)[C@H](c1ccccc1Cl)N1CCc2sccc2C1` [clopidogrel, Clopidogrel hydrogen sulfate, reference compound], the “thymus index (TI) and spleen index (SI) compared to vehicle group” value (shortened to “thymus index (TI) and spleen index (SI)”) is listed as “no significant difference”.

Still in this data set, the particulars now being: SD rats, oral, 200 μmol/kg b.w., n = 6.
Turning to `N[C@@H](CCC(=O)O)C(=O)N1C[C@H](O)C[C@H]1C(=O)NCC(=O)N[C@@H](CCC(=O)O)C(=O)O` [EOGE, Glu-Hyp-Gly-Glu] (HELM PEPTIDE1{E.[Hyp].G.E}$$$$V2.0), the “thymus index (TI) and spleen index (SI)” value is “no significant difference”.

Still in this data set, the particulars now being: SD rats, oral, 300 μmol/kg b.w., n = 6.
Take `N[C@@H](CCC(=O)O)C(=O)N1C[C@H](O)C[C@H]1C(=O)NCC(=O)N[C@@H](CCC(=O)O)C(=O)O` [EOGE, Glu-Hyp-Gly-Glu] (HELM PEPTIDE1{E.[Hyp].G.E}$$$$V2.0): the “thymus index (TI) and spleen index (SI)” value is listed as “no significant difference”.

Another data set deals with thrombus formation.
Experiment: not given
Particulars: oral administration; cited from earlier work. An excerpt: Collagen is a natural source of bioactive peptides and widely distributed in skin and bone tissue, which has a unique triple-helix structure with a repeated amino acid sequence of (Gly-X-Y)n, in which X and Y are typically Pro and Hyp. Hyp-Gly-containing peptides are abundant in collagen, and a large quantity of these peptides could be released after hydrolysis.
On to “OGEFG [peptide identified from Salmo Salar skin in a previous study]”, for which the “thrombus formation in vivo” value was “attenuates thrombus formation without bleeding risks”.

In a further data set the test system is ADP-induced platelet aggregation.
Experiment: not given
The format is cell-based, rat.
Conditions: not given
Here is the method: The platelet was isolated from rat aorta blood and mixed with sodium citrate (1:9, v/v) as previously described with some modifications. Briefly, anticoagulated blood was centrifuged (50× g, 10 min) to obtain platelet-rich plasma (PRP). The residue was centrifuged at 750× g for 10 min to collect the platelet-poor plasma (PPP), and PRP was diluted to 2–3 × 10^8 with PPP.
Inhibition of platelet aggregation induced by ADP was measured with a four-channel aggregometer as previously described. Aliquots of 270 μL of PRP were incubated with 30 μL of PPP or peptides with different concentrations at 37 °C for 5 min. After incubation, platelet aggregation was induced by adding 30 μL of ADP (0.1 mM). The platelet aggregation at 5 min was recorded, and the inhibition rate was calculated as follows. Inhibition of platelet aggregation (%) = [1 − platelet aggregation (sample)/platelet aggregation (control)] × 100
The IC50 value of platelet aggregation was calculated by Graphpad Prism 6.0.
In turn, `N[C@@H](CC(=O)O)C(=O)N1C[C@H](O)C[C@H]1C(=O)NCC(=O)N[C@@H](CCC(=O)O)C(=O)O` [DOGE] (HELM PEPTIDE1{D.[Hyp].G.E}$$$$V2.0) registered an IC50 of 661 µM.

With `N[C@@H](CCC(=O)O)C(=O)N1C[C@H](O)C[C@H]1C(=O)NCC(=O)N[C@@H](CCC(=O)O)C(=O)O` [EOGE, Glu-Hyp-Gly-Glu] (HELM PEPTIDE1{E.[Hyp].G.E}$$$$V2.0), 390 µM corresponded to half-maximal inhibition (IC50).

Regarding `N[C@@H](CCC(=O)O)C(=O)N1C[C@H](O)C[C@H]1C(=O)NCC(=O)O` [EOG] (HELM PEPTIDE1{E.[Hyp].G}$$$$V2.0; N-terminus and C-terminus assumed), the IC50 came to 395 µM.

Compound `NCC(=O)N[C@@H](CCC(=O)O)C(=O)N1C[C@H](O)C[C@H]1C(=O)NCC(=O)O` [GEOG] (HELM PEPTIDE1{G.E.[Hyp].G}$$$$V2.0) registered a 50% inhibitory concentration (IC50) of 878 µM.

Compound `NCC(=O)N1C[C@H](O)C[C@H]1C(=O)N1C[C@H](O)C[C@H]1C(=O)NCC(=O)N1CCC[C@H]1C(=O)N[C@@H](CCC(N)=O)C(=O)O` [GOOGPQ] (HELM PEPTIDE1{G.[Hyp].[Hyp].G.P.Q}$$$$V2.0; N-terminus and C-terminus assumed) had an IC50 of 2080 µM.

`CSCC[C@H](NC(=O)[C@@H]1CCCN1C(=O)CNC(=O)[C@@H]1CCCN1C(=O)[C@@H]1C[C@@H](O)CN1C(=O)CN)C(=O)O` [GOPGPM] (HELM PEPTIDE1{G.[Hyp].P.G.P.M}$$$$V2.0; N-terminus and C-terminus assumed) showed an IC50 of 5340 µM.

In the case of `O=C(O)C[C@H](NC(=O)CNC(=O)[C@@H]1C[C@@H](O)CN1)C(=O)O` [OGD] (HELM PEPTIDE1{[Hyp].G.D}$$$$V2.0; N-terminus and C-terminus assumed), inhibition was half-maximal at 435 µM (IC50).

Compound `O=C(O)CC[C@H](NC(=O)CNC(=O)[C@@H]1C[C@@H](O)CN1)C(=O)O` [OGE] (HELM PEPTIDE1{[Hyp].G.E}$$$$V2.0; N-terminus and C-terminus assumed) registered an IC50 of 620 µM.

In turn, `CSCC[C@H](NC(=O)[C@@H]1C[C@@H](O)CN1C(=O)CNC(=O)[C@@H]1C[C@@H](O)CN1)C(=O)NCC(=O)O` [OGOMG] (HELM PEPTIDE1{[Hyp].G.[Hyp].M.G}$$$$V2.0; N-terminus and C-terminus assumed) yielded an IC50 of 1490 µM.

Compound `O=C(NCC(=O)N1CCC[C@H]1C(=O)O)[C@@H]1C[C@@H](O)CN1` [OGP] (HELM PEPTIDE1{[Hyp].G.P}$$$$V2.0; N-terminus and C-terminus assumed) yielded an IC50 of 506 µM.

As for `NC(=O)CC[C@H](NC(=O)CNC(=O)[C@@H]1C[C@@H](O)CN1)C(=O)O` [OGQ] (HELM PEPTIDE1{[Hyp].G.Q}$$$$V2.0; N-terminus and C-terminus assumed), it took 760 µM to reach half-maximal inhibition (IC50).

The compound `C[C@H](NC(=O)[C@H](CO)NC(=O)CNC(=O)[C@@H]1C[C@@H](O)CN1)C(=O)O` [OGSA] (HELM PEPTIDE1{[Hyp].G.S.A}$$$$V2.0) had an IC50 of 630 µM.

Compound `O=C(O)CC[C@H](NC(=O)[C@H](CO)NC(=O)CNC(=O)[C@@H]1C[C@@H](O)CN1)C(=O)O` [OGSE] (HELM PEPTIDE1{[Hyp].G.S.E}$$$$V2.0) came in with an IC50 of 558 µM.

Compound `O=C(O)CNC(=O)[C@@H]1C[C@@H](O)CN1` [OG] (HELM PEPTIDE1{[Hyp].G}$$$$V2.0) showed an IC50 of 1420 µM.

As for `O=C(O)CC[C@H](NC(=O)CNC(=O)[C@@H]1C[C@@H](O)CN1C(=O)[C@H](CCC(=O)O)NC(=O)CNC(=O)[C@@H]1CCCN1)C(=O)O` [PGEOGE] (HELM PEPTIDE1{P.G.E.[Hyp].G.E}$$$$V2.0; N-terminus and C-terminus assumed), the IC50 is 317 µM.

`O=C(O)CC[C@H](NC(=O)CNC(=O)[C@@H]1CCCN1)C(=O)N1C[C@H](O)C[C@H]1C(=O)NCC(=O)O` [PGEOG] (HELM PEPTIDE1{P.G.E.[Hyp].G}$$$$V2.0; N-terminus and C-terminus assumed) gave an IC50 of 857 µM.

Compound `O=C(O)CC[C@H](NC(=O)CNC(=O)[C@@H]1CCCN1)C(=O)O` [PGE] (H-Pro-Gly-Glu-OH; N-terminus and C-terminus assumed) showed an IC50 of 927 µM.

Compound `O=C(CNC(=O)[C@@H]1CCCN1)N[C@@H](Cc1c[nH]cn1)C(=O)N[C@@H](Cc1c[nH]cn1)C(=O)O` [PGHH] had an IC50 of 1400 µM.

For the compound `NCCCC[C@H](NC(=O)CNC(=O)[C@@H]1CCCN1)C(=O)N1CCC[C@H]1C(=O)O` [PGKP] (H-PGKP-OH), the IC50 turned out to be 2570 µM.

In turn, `NCCCC[C@H](NC(=O)[C@@H]1CCCN1C(=O)CNC(=O)[C@@H]1CCCN1)C(=O)O` [PGPK] (H-PGPK-OH) displayed an IC50 of 2790 µM.

The compound `NC(=O)CC[C@H](NC(=O)[C@@H]1CCCN1C(=O)CNC(=O)[C@@H]1CCCN1)C(=O)O` [PGPQ] (H-PGPQ-OH) registered an IC50 of 3560 µM.

`NC(=O)CC[C@H](NC(=O)CNC(=O)[C@@H]1CCCN1)C(=O)N1CCC[C@H]1C(=O)O` [PGQP] (H-PGQP-OH): half-maximal inhibition (IC50) was put at 2410 µM.

`O=C(O)CNC(=O)[C@@H]1CCCN1` [PG] (H-Pro-Gly-OH; N-terminus and C-terminus assumed) had an IC50 of 3640 µM.

Regarding `CC(C)[C@H](N)C(=O)NCC(=O)N1CCC[C@H]1C(=O)N1C[C@H](O)C[C@H]1C(=O)NCC(=O)N1CCC[C@H]1C(=O)N[C@@H](C)C(=O)O` [VGPOGPA] (HELM PEPTIDE1{V.G.P.[Hyp].G.P.A}$$$$V2.0; N-terminus and C-terminus assumed), 2450 µM corresponded to half-maximal inhibition (IC50).
